How the values were obtained:
[1] = target: T1, Purine nucleoside phosphorylase (Homo sapiens) (UniProt P00491); experiment: Inhibitory activity against Purine nucleoside phosphorylase evaluated by radiochemical assay at <300 uM; assay type: tissue-based; conditions: Urine
T1 sequence (whole entry): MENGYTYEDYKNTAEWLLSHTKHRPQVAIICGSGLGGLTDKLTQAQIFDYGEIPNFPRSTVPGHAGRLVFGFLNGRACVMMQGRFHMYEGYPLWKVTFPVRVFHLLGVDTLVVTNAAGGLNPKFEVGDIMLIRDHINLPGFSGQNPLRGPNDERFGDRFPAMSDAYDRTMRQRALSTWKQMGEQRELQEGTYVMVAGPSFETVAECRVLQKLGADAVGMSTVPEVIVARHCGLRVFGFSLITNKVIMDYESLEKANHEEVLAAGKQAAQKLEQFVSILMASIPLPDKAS

[2] = target: T2, Purine nucleoside phosphorylase (Homo sapiens, UniProt P00491)
T2 sequence (P00491 whole entry): T1 sequence (whole entry)

[3] = system: MOLT-4; experiment: cells; conditions: Homo sapiens
[4] = target: T1, Purine nucleoside phosphorylase (Homo sapiens); experiment: Inhibitory activity against Purine nucleoside phosphorylase evaluated by radiochemical assay concentration <300 uM; assay type: tissue-based
[5] = target: T1, Purine nucleoside phosphorylase (Homo sapiens); experiment: Inhibitory activity against Purine nucleoside phosphorylase evaluated by radiochemical assay <300 uM; assay type: tissue-based; conditions: Urine
[6] = target: T1, Purine nucleoside phosphorylase (Homo sapiens); experiment: Inhibitory activity against Purine nucleoside phosphorylase evaluated by radiochemical assay; assay type: tissue-based; conditions: Urine; concentration not given here

SMILES | IC50 [2] [µM] | IC50 [3] [µM] | further results
Oc1nc(S)n(CCc2ccccc2)c2ncnc1-2 |  |  | inhibition [1]: 10.9%
O=c1[nH]c(=O)n(Cc2ccccc2)c2nc[nH]c12 | 13.4 | 28.6 | 
Nc1nc(O)c2ncn(Cc3ccccc3)c2n1 | 29.6 | 35 | 
Nc1nc2c(O)nc(N)n(Cc3cccs3)c-2n1 | 4.6 | > 25 | 
Oc1ncn(CCc2ccccc2)c2ncnc1-2 |  |  | inhibition [4]: 26.8%
Oc1ncn(Cc2ccc(Cl)c(Cl)c2)c2ncnc1-2 |  |  | inhibition [4]: 36.9%
Oc1ncn(Cc2ccccc2)c2ncnc1-2 | 112 | 204 | inhibition [5]: 81%
O=[N+]([O-])c1ccc(Cn2cnc(O)c3ncnc2-3)cc1 |  |  | inhibition [4]: 13.1%
Oc1nc(S)n(Cc2ccccc2)c2ncnc1-2 |  |  | inhibition [6]: 78.3%
Nc1nc2c(S)ncn(Cc3ccccc3)c-2n1 | 131 |  | 
CSc1nc(O)c2nc(N)nc-2n1Cc1ccccc1 | > 75 |  | 
Nc1nc(O)c2nc(N)n(Cc3ccco3)c2n1 |  | 1.47 | 
Nc1nc(O)c2nc(N)n(Cc3cccs3)c2n1 |  | 0.82 | 
Nc1nc(O)c2nc(NC=O)nc-2n1Cc1ccccc1 | > 150 |  | 
CSc1nc(O)c2ncnc-2n1Cc1ccccc1 |  |  | inhibition [4]: 23.3%
Nc1nc(O)c2nc(N)n(Cc3ccccc3)c2n1 | 0.47 | 0.77 | 
N#Cc1ccc(Cn2cnc(O)c3ncnc2-3)cc1 |  |  | inhibition [4]: 22.2%
Nc1nc2c(O)nc(N)n(Cc3ccco3)c-2n1 | 5.2 | 42.5 | 
COc1ccc(Cn2c(N)nc(O)c3nc(N)nc2-3)cc1 | 8.9 |  | 
Nc1[nH]c[n+](Cc2ccccc2)c2ncnc1-2 | 95 |  | 

Source: ChEMBL document CHEMBL1125439, “Inhibitors of human purine nucleoside phosphorylase. Synthesis and biological activities of 8-amino-3-benzylhypoxanthine and related analogues” (J Med Chem, 1992)
